Test system: healthy volunteers, 5 hour advance in bedtime
Test: Example 1: placebo-controlled clinical trial, 5 hour advance in bedtime (DLMO, PSG)
Type: in vivo, human
Protocol: A clinical trial was conducted to assess the safety of Compound A as well as to determine the ability of Compound A to shift the sleep/wake cycle following a 5 hour advance in bedtime. The study was a randomized, double-blind, parallel group, placebo-controlled study. It consisted of a 2-4 week outpatient screening period followed by an 8-day inpatient stay. After acclimating to the sleep lab, bedtime was advanced by 5 hours. The primary objectives of this study were to investigate the exposure-response to Compound A on advancement of circadian release of endogenous melatonin rhythm as measured by dim light melatonin onset (DLMO, a biomarker of the sleep-wake cycle), to investigate the exposure-response to Compound A on mean sleep efficiency parameters as measured by PSG, to investigate the exposure-response to Compound A on objective neurobehavioral performance lapses during scheduled work-time as measured by computerized continuous performance testing, and to assess the safety and tolerability of Compound A. Forty-five healthy volunteers, men and women aged 18-50, were enrolled into this study. Thirty-nine subjects were randomized.
The study was designed to assess the safety and efficacy of four oral doses of Compound A (10 mg, 20 mg, 50 mg and 100 mg) compared to matching placebo on circadian phase shift, sleep parameters during the major sleep episode, and subject alertness. After written informed consent was signed, subjects that met the inclusion/exclusion criteria at screening and baseline were enrolled into the 8-day in-patient portion of the study. All in-patient assessments were conducted in a time-isolation sleep lab in which no time cues were available to subjects. During the first three nights, subjects were given placebo 30 minutes prior to bedtime (11:00 PM) in a single-blind fashion. Baseline assessments for the efficacy parameters were measured during this period. At 5:00 PM on day 3, subjects started a 19 hour pre-constant posture (CP) segment during which time the subjects remained seated in a semi-recumbent position and blood samples were collected approximately every hour from 7:00 AM to 12:00 PM. The purpose of the pre-CP segment is to provide a measure of each subject's circadian phase before the start of the night shift segment. On day 4, subjects were randomized to once daily treatment in one of the five treatment groups. In addition, subject sleep-wake routines were advanced 5 hours, such that subjects were required to sleep from approximately 6:00 PM-2:00 AM. Treatment was administered and the time shift was maintained for 3 days. Efficacy parameters were collected during this time. To measure circadian phase at the end of the study, a 24-hour post-CP was conducted immediately after the treatment segment on day 7. Over the course of the study, approximately 500 mL of blood was drawn from each subject. Safety was assessed throughout the study, at the end of study (EOS) visit on day 8, and at the Follow-up visit. The target number of subjects for enrollment was 40 but 45 were actually enrolled.
To assess circadian sleep-wake cycles in the study, plasma melatonin levels were assessed. The onset of melatonin production, or dim light melatonin onset (DLMO), is associated with onset of sleep. DLMO is considered a standard marker used frequently to assess circadian phase. To assess the effects of Compound A on the sleep-wake cycles, DLMO was monitored in subjects before and after treatment. For this study, DLMO was defined as the time when melatonin production reaches 25% of the nightly peak (MEL25% up) of the fitted melatonin phase curve.
Because light has a significant confounding effect on melatonin release, light levels in the sleep laboratory were carefully regulated. […]

`CCC(=O)NC[C@@H]1C[C@H]1c1cccc2c1CCO2` [Compound A, N-[[(1R,2R)-2-(2,3-dihydro-1-benzofuran-4-yl)cycloproply]methyl]propanamide] was tested, and the “Change in DLMO25%,LOQ5 between Night 4 and Night 3” value (10 mg, N = 8) was 0.18 h, the “Change in WASO (fraction of time awake from persistent sleep to lights on) between Night 4 and Night 2” value (10 mg, N = 8) was 8.37 % points and the “Change in WASO between Night 4 and Night 2” value (10 mg, N = 8) was 40.56 min. For the same compound, the “Mean Change in Sleep Efficiency between Night 4 and Night 2, Full Night” value (“Mean Change … Full Night” for short) (10 mg, N = 8) was −7.77 % points, the “Change in Latency to Persistent Sleep between Night 4 and Night 2” value (shortened to “Change in Latency”) (10 mg, N = 8, mean ± SD, p 0.0034 vs placebo) was -8.25 ± 16.34 min and the “Mean Change in Sleep Efficiency between Night 4 and Night 2, 2nd Third of the Night” value (from here on “Mean Change … of the Night”) (10 mg, N = 8, mean ± SD, p 0.0303 vs placebo) was −12.64 ± 13.83 % points. The “Change in DLMO25%,LOQ5 between Night 4 and Night 3” value (20 mg, N = 7) was -1.14 h, the “Change in Latency” value (20 mg, N = 8) was 5.00 min and the “Change in WASO (fraction of time awake from persistent sleep to lights on) between Night 4 and Night 2” value (20 mg, N = 8) was 6.91 % points. For the same compound, the “Change in WASO between Night 4 and Night 2” value (20 mg, N = 8) was 31.19 min, the “Mean Change … Full Night” value (20 mg, N = 8) was −6.68 % points and the “Mean Change … of the Night” value (20 mg, N = 8, mean ± SD, p 0.0048 vs placebo) was −5.11 ± 12.78 % points. For the same compound, the “Change in DLMO25%,LOQ5 between Night 4 and Night 3” value (50 mg, N = 4) was -0.50 h, the “Change in WASO (fraction of time awake from persistent sleep to lights on) between Night 4 and Night 2” value (50 mg, N = 7) was 6.61 % points and the “Change in WASO between Night 4 and Night 2” value (50 mg, N = 7) was 31.21 min. The “Mean Change … of the Night” value (50 mg, N = 7, mean ± SD, p 0.0028 vs placebo) was −2.10 ± 4.14 % points, the “Change in Latency” value (50 mg, N = 7, mean ± SD, p 0.0193 vs placebo) was -3.71 ± 10.97 min and the “Mean Change … Full Night” value (50 mg, N = 7, mean ± SD, p 0.0487 vs placebo) was −5.87 ± 9.89 % points. For the same compound, the “Change in DLMO25%,LOQ5 between Night 4 and Night 3” value (100 mg, N = 5, mean ± SD, p 0.0276 vs placebo) was -2.74 ± 1.95 h, the “Change in Latency” value (100 mg, N = 6, mean ± SD, p 0.0214 vs placebo) was -4.17 ± 6.93 min and the “Mean Change … of the Night” value (100 mg, N = 7, mean ± SD, p 0.0030 vs placebo) was −2.30 ± 5.72 % points. For the same compound, the “Mean Change … Full Night” value (100 mg, N = 7, mean ± SD, p 0.0141 vs placebo) was −2.02 ± 4.94 % points, the “Change in WASO (fraction of time awake from persistent sleep to lights on) between Night 4 and Night 2” value (100 mg, N = 7, mean ± SD, p 0.0391 vs placebo) was 1.85 ± 4.29 % points and the “Change in WASO between Night 4 and Night 2” value (100 mg, N = 7, mean ± SD, p 0.0452 vs placebo) was 8.50 ± 20.39 min. The “number of episodes of REM during the final third of the night” value (Night 4, after phase advance) was “dose-related increase”, the “percentage of time in each sleep stage” value (between Night 4 and Night 2) was “did not change” and the tolerability (doses of 10, 20, 50, and 100 mg, conclusion from Examples 1 and 2) was “well-tolerated”. The “lowest effective dose for DLMO shift” value (first dose with statistically significant p-value in ANOVA with contrasts) was 100 mg.
